Measurements published in the supplement of paper PMC10307832.

Key:
Experiment in all cases: relative viability (nuclei count vs DMSO), 5 days (fraction); higher = more cells survive
NCI-H1395 = test system: NCI-H1395
Procedure, shortened: (§1)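 Dosing by pin tool came one day after lung cancer cell lines were seeded in 1536-well plates, using either one drug or a fixed anchor-drug dose plus five library-drug doses (not always all listed) in √10 steps. After 5 days, nuclei were counted on 4× images. Relative viability is treated-well nuclei count divided by vehicle-well nuclei count, and values are medians of duplicate plates.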

HARA = test system: HARA
Procedure, shortened: as §1

NCI-H2009 = test system: NCI-H2009
Procedure, shortened: as §1

COR-L 105 = test system: COR-L 105
Procedure, shortened: as §1

CAL-12T = test system: CAL-12T
Procedure, shortened: as §1

NCI-H1437 = test system: NCI-H1437
Procedure, shortened: as §1

LCLC-103H = test system: LCLC-103H
Procedure, shortened: as §1

NCI-H460 = test system: NCI-H460
Procedure, shortened: as §1

HOP-62 = test system: HOP-62
Procedure, shortened: as §1

EMC-BAC-2 = test system: EMC-BAC-2
Procedure, shortened: as §1

HCC-366 = test system: HCC-366
Procedure, shortened: as §1

NCI-H1975 = test system: NCI-H1975
Procedure, shortened: as §1

Work on `Clc1ccc(Nc2nnc(Cc3ccncc3)c3ccccc23)cc1` [Vatalanib] + C[C@]1(O)C[C@@H](c2nc(-c3ccc4ccc(-c5ccccc5)nc4c3)c3c(N)nccn32)C1 [Linsitinib] (partner 1 µM) yielded a relative viability (NCI-H1395; first compound 0.4 µM) of 1.63, a relative viability (NCI-H1395; first compound 1.265 µM) of 0.998 and a relative viability (NCI-H1395; first compound 4 µM) of 0.86. It also gave a relative viability (HARA; first compound 0.04 µM) of 1.02, a relative viability (HARA; first compound 0.1265 µM) of 0.896 and a relative viability (HARA; first compound 0.4 µM) of 1. For the same compound, the relative viability (HARA; first compound 1.265 µM) was 0.84, the relative viability (HARA; first compound 4 µM) was 0.838 and the relative viability (NCI-H2009; first compound 0.04 µM) was 1.16. It also gave a relative viability (NCI-H2009; first compound 0.1265 µM) of 1.04, a relative viability (NCI-H2009; first compound 0.4 µM) of 1.3 and a relative viability (NCI-H2009; first compound 1.265 µM) of 1.16. The relative viability (NCI-H2009; first compound 4 µM) was 1.18, the relative viability (COR-L 105; first compound 0.04 µM) was 0.835 and the relative viability (COR-L 105; first compound 0.1265 µM) was 0.87. The relative viability (COR-L 105; first compound 0.4 µM) was 1.12, the relative viability (COR-L 105; first compound 1.265 µM) was 0.772 and the relative viability (COR-L 105; first compound 4 µM) was 0.941. It also gave a relative viability (CAL-12T; first compound 0.04 µM) of 0.826, a relative viability (CAL-12T; first compound 0.1265 µM) of 0.787 and a relative viability (CAL-12T; first compound 0.4 µM) of 0.848. For the same compound, the relative viability (CAL-12T; first compound 1.265 µM) was 0.755, the relative viability (CAL-12T; first compound 4 µM) was 0.822 and the relative viability (NCI-H1437; first compound 0.04 µM) was 1.09. It also gave a relative viability (NCI-H1437; first compound 0.1265 µM) of 1.03, a relative viability (NCI-H1437; first compound 0.4 µM) of 1.14 and a relative viability (NCI-H1437; first compound 1.265 µM) of 0.956. For the same compound, the relative viability (NCI-H1437; first compound 4 µM) was 1.08, the relative viability (LCLC-103H; first compound 0.04 µM) was 1.24 and the relative viability (LCLC-103H; first compound 0.1265 µM) was 1.07. For the same compound, the relative viability (LCLC-103H; first compound 0.4 µM) was 1.24, the relative viability (LCLC-103H; first compound 1.265 µM) was 1.06 and the relative viability (LCLC-103H; first compound 4 µM) was 1.05. It also gave a relative viability (NCI-H460; first compound 0.04 µM) of 1.01, a relative viability (NCI-H460; first compound 0.1265 µM) of 0.684 and a relative viability (NCI-H460; first compound 0.4 µM) of 0.732. For the same compound, the relative viability (NCI-H460; first compound 1.265 µM) was 0.699, the relative viability (NCI-H460; first compound 4 µM) was 0.711 and the relative viability (HOP-62; first compound 0.04 µM) was 0.785. For the same compound, the relative viability (HOP-62; first compound 0.4 µM) was 1.02, the relative viability (HOP-62; first compound 1.265 µM) was 0.922 and the relative viability (HOP-62; first compound 4 µM) was 0.876. For the same compound, the relative viability (EMC-BAC-2; first compound 0.04 µM) was 0.817, the relative viability (EMC-BAC-2; first compound 0.1265 µM) was 0.762 and the relative viability (EMC-BAC-2; first compound 0.4 µM) was 0.793. The relative viability (EMC-BAC-2; first compound 1.265 µM) was 0.808, the relative viability (EMC-BAC-2; first compound 4 µM) was 0.802 and the relative viability (HCC-366; first compound 0.04 µM) was 0.722. For the same compound, the relative viability (HCC-366; first compound 0.1265 µM) was 0.456, the relative viability (HCC-366; first compound 0.4 µM) was 0.725 and the relative viability (HCC-366; first compound 1.265 µM) was 0.542. For the same compound, the relative viability (HCC-366; first compound 4 µM) was 0.609, the relative viability (NCI-H1975; first compound 0.04 µM) was 0.889 and the relative viability (NCI-H1975; first compound 0.1265 µM) was 0.92. For the same compound, the relative viability (NCI-H1975; first compound 0.4 µM) was 1.1, the relative viability (NCI-H1975; first compound 1.265 µM) was 0.834 and the relative viability (NCI-H1975; first compound 4 µM) was 0.86.
